Results as given in patent US20040009181A1, “Treatment of ophthalmic conditions” (priority 2002, published 2004).
Ends that are not written are not given here.

What was measured:
[1] = centrally administered; Peptides 9, 1285-8 (1989); cited from earlier work
[2] = test system: Herpes zoster virus (HZV); conditions: Eye 8: 70-74 (1994); cited from earlier work
corneal epithelial cells = conditions: Lens Eye Toxic. Res. 6: 59-85 (1989); cited from earlier work
[3] = test system: C. albicans (clinical isolate); assay: C. albicans viability, colony forming units (incl. comparison with fluconazole and ACTH); type: cell-based, Candida albicans; parameters: potency in reducing C. albicans viability / inhibition of C. albicans CFU: dose or concentration left out as unconfirmed; conditions: for potency in reducing C. albicans viability: comparison among peptides, fluconazole and ACTH; for effect on C. albicans colony forming units: 10^−15 to 10^−4M, 2 hours at 37° C., FIG. 7
Protocol: C. albicans (clinical isolate) were obtained from the collection of the Department of Microbiology, Ospedale Maggiore di Milano. C. albicans were maintained on Sabouraud'[…] periodically transferred to Sabouraud's agar plates and incubated for 48 hours at 28° C. To prepare stationary growth phase yeast, a colony was taken from the agar plate and transferred into 30 ml Sabouraud-dextrose broth and incubated for 72 hours at 32° C. Cells were centrifuged at 100×g for 10 minutes and the pellet was washed twice with distilled water. Cells were counted and suspended in Hank's balanced salt solution (“HBSS”) to the desired concentration. Viability, determined by the exclusion of 0.01% methylene blue, remained >98%. […] ID NO. […] Cells were then washed in cold distilled water and diluted with HBSS to a concentration of 100 organisms/ml. One ml aliquots were dispensed on blood agar plates and incubated for 48 hours at 37° C. Organism viability was estimated from the number of colonies formed. […] (SEQ. […] Fluconazole is a well established antifungal agent. The potency of the peptides in reducing C. albicans viability is studied in comparison with fluconazole and ACTH using similar procedures as in Example VII. […] There were at least six replicates for each concentration of peptide. […] Their inhibitory activity was similar to that of fluconazole. The “core” α-MSH sequence, α-MSH [4-10] (SEQ. […] (SEQ. ID NO. 3) and α-MSH [11-13] […] (SEQ. ID NO. 4) (p<0.05).

[4] = test system: Herpes simplex virus blepharitis; assay: Treatment of viral ophthalmic infection, HSV blepharitis, patient; type: in vivo; conditions: ophthalmic aqueous solution 10^−5 M, 3-5 drops four times daily for 7 days
Protocol: A patient is diagnosed as having Herpes simplex virus blepharitis. […] The patient is treated with 3-5 drops of the ophthalmic aqueous solution onto the surface of eyes four times daily for 7 days.

[5] = test system: infectious keratitis of bacterial etiology; assay: Treatment of bacterial ophthalmic infection, bacterial keratitis, patient; type: in vivo; conditions: ophthalmic aqueous solution 10^−5 M, 3-5 drops four times daily for 7 days
Text: A patient presents complaining of eye pain when blinking and blurred vision. Upon examination the cornea appears subtly less transparent than normal cornea and may have ulcers on its surface. The diagnosis is infectious keratitis of bacterial etiology, which is confirmed by laboratory findings.

[6] = test system: S. aureus with recombinant human urokinase; assay: Urokinase-induced growth-enhancement of S. aureus, colony counts; type: cell-based, Staphylococcus aureus; conditions: 10^−6 M; urokinase 500 U, four hours at 37° C.; FIG. 6; listed as α-MSH [11-13]
Protocol: In this experiment, the influence of α-MSH on urokinase-induced growth-enhancement is determined. Hart, D. A.; Loule, T.; Krulikl, W.; Reno, C., Staphylococcus Aureus Strains Differ in Their in Vitro Responsiveness to Human Urokinase: Evidence that Methicillin-Resistant Strains are Predominantly Nonresponsive to the Growth-Enhancing Effects of Urokinase, Can. J. Microbiol. 42, 1024-31 […]. […] (SEQ. ID NO. 4) or α-MSH [11-13] (SEQ. ID NO. […]) at 10^−6 M. Appropriate dilutions of S. aureus were dispensed on agar plates and colonies counted after 24 hours incubation at 37° C.

[7] = test system: HIV-1 RNA in PMA-stimulated U1 cells; assay: HIV transcription, Northern blot analysis of HIV-RNA in PMA-stimulated U1 cells; type: cell-based; conditions: 10^−5M; PMA (1 ng/mL) stimulated U1 cells, 24 h; FIG. 4
Text: Total RNA was extracted by the guanidine thiocyanate phenol method using an RNA isolation kit (Tripure, Boehringer Mannheim, Indianapolis, Ind.), following the manufacturer's instructions. Ten μg of total RNA were separated by 0.8% agarose/formaldehyde gel electrophoresis and transferred onto nylon membrane. The filters were baked and hybridized for 18 hr with α^32 P-labeled HIV-full length probe (kind gift of L. Turchetto and E. Vicenzi, S. Raffaele Hospital, Milan, Italy). The radiolabeling reaction was performed using a DNA labeling kit (Ready-to-go, Pharmacia Biotech, San Francisco, Calif.). Filters were washed and exposed to X-ray film for 5 days. The labeled probe was removed by washing at 80° C. in 0.1×SSC containing 0.1% sodium dodecyl sulphate and then rehybridized with α^32 P-labeled glyceraldehyde-3-phosphate dehydrogenase (GAPDH) cDNA probe. Densitometric analysis was performed using ImageMaster™ VDS 3.0 software (Pharmacia Biotech) and results were expressed as density units.

Keratomycosis = assay: Treatment of fungal ophthalmic infection, Keratomycosis, patient; type: in vivo; conditions: ophthalmic aqueous solution 10^−5 M, 3-5 drops four times daily for 7 days
Text: Upon examination, a patient is diagnosed as having Keratomycosis.

[8] = test system: Staphylococcus aureus (ATCC29213); assay: S. aureus viability, colony forming units; type: cell-based; parameters: dose or concentration left out as unconfirmed; conditions: 2 hours at 37° C.; FIG. 5
Protocol: Staphylococcus aureus (ATCC29213) was obtained from the collection of the Department of Microbiology, Ospedale Maggiore di Milano. […] (SEQ. ID NO 4), α-MSH [11-13] […] S. aureus were then washed in cold distilled water and diluted with HBSS to a concentration of 100 organisms/ml. One ml aliquots were dispensed on blood agar plates and incubated for 24 hours at 37° C. Organism viability was estimated from the number of colony forming units. (SEQ. ID NO. 4) and α-MSH [11-13]

[9] = test system: HIV-1 infected promonocytic U1 cells; assay: HIV-p24 and reverse transcriptase release by U1 cells stimulated by IL-6, IL-10, PMA or crowding; type: cell-based; conditions: 10^−5 M; U1 cells induced by IL-6, IL-10, PMA, and in crowding conditions; FIG. 3
Protocol: In all experiments, each condition was tested in triplicate.

[10] = test system: HIV-1 infected promonocytic U1 cell line; assay: HIV-p24 release by TNF-α stimulated U1 cells (ELISA); type: cell-based; conditions: 10^−13 to 10^−4 M, FIG. 2
Text: Before use, cells were washed three times with HBSS (Gibco) to remove extracellular virus.

[11] = Peptides 12, 767-71 (1991); cited from earlier work
[12] = Peptides 6, 273-5 (1985); cited from earlier work

For “8-13 sequence: α-MSH 8-13 sequence (RWGKPV; ends and bridges not checked; UniProt P01189 145-150, looked up, fragment)”, which “antipyretic potency relative to α-MSH (11-13) sequence” value (“antipyretic potency relative to α-MSH” for short) [1] is on record?
The value was “greater than that of the 11-13 sequence”.

Which “antipyretic potency relative to α-MSH” value [1] does the source give for “9-13 sequence: α-MSH 9-13 sequence (WGKPV; ends and bridges not checked; UniProt P01189 146-150, looked up, fragment)” here?
The value was “almost devoid of activity”.

For “10-13 sequence: α-MSH (11-13) with glycine added to form the 10-13 sequence (GKPV; ends and bridges not checked; UniProt P01189 147-150, looked up, fragment)”, which “antipyretic potency relative to α-MSH” value [1] is on record?
The value was “slightly decreased potency”.

For `Nc1nc2c(ncn2COCCO)c(=O)[nH]1` [Acyclovir], which “preventative effect on ocular complications of HZV” value [2] is on record?
The value was “little or no preventative effect”.

With `O=c1[nH]c(=O)n([C@H]2C[C@H](O)[C@@H](CO)O2)cc1I` [Idoxurine] as the compound, how does the “toxicity to corneal epithelial cells” value (corneal epithelial cells) read?
The value was “toxic to corneal epithelial cells”.

For “ACTH (1-39): Adrenocorticotropic Hormone (1-39) (SYSMEHFRWGKPVGKKRRPVKVYPNGAEDESAEAFPLEF; Corticotropin; UniProt P01189 138-176, looked up) [reference compound]”, which “potency in reducing C. albicans viability” value ([3]; FIG. 8) is on record?
Its value is “did not reduce”.

For “ACTH (18-39): ACTH fragment (18-39), also called CLIP [reference compound]”, which “potency in reducing C. albicans viability” value ([3]; FIG. 8) is on record?
Its value is “did not reduce”.

With “HFRWGKPV (Ac-HFRWGKPV-NH2) [α-MSH [6-13], α-MSH from residue 6 through residue 13]” as the compound, how does the “potency in reducing C. albicans viability” value ([3]; FIG. 8) read?
The value was “most effective”.

Which results are given for KPV?
HSV blepharitis symptom after treatment [4]: substantially reduced; effect on C. albicans colony forming units [3]: greatly reduced; potency in reducing C. albicans viability ([3]; FIG. 8): most effective; outcome of bacterial keratitis after treatment [5]: either shows marked improvement or fully recovers; effect on urokinase-enhanced S. aureus colony formation [6]: significantly inhibited the enhancing effect of urokinase; reduction of spliced HIV-1 RNA [7]: approximately 50%; reduction of unspliced HIV-1 RNA [7]: approximately 50%; outcome of Keratomycosis after treatment (Keratomycosis): either shows marked improvement or fully recovers; effect on S. aureus colony formation (CFU) [8]: inhibited; effect on RT (reverse transcriptase) release [9]: significantly inhibited; effect on p24 release [9]: significantly inhibited; effect on p24 release [10]: significantly inhibited

With MEHFRWG (Ac-MEHFRWG-NH2) [α-MSH [4-10]] as the compound, how does the “inhibition of C. albicans CFU” value ([3]; FIG. 8) read?
Its value is “approximately 50%”.

For “Val-Pro-Lys-AcCys-s-s-CysAc-Lys-Pro-Val [KPV dimer]”, which “effect on C. albicans colony forming units” value [3] is on record?
Its value is “inhibited”.

What about the “effect on S. aureus colony formation (CFU)” value [8] of the same compound?
Its value is “inhibited”.

For [D-K^11] α-MSH 11-13, which “anti-inflammatory activity relative to L-form tripeptide α-MSH 11-13” value [11] is on record?
Its value is “same general potency as the L-form”.

With [Nle^4 DPhe^7]-α-MSH as the compound, how does the “potency in reducing fever relative to parent peptide α-MSH” value [12] read?
Its value is “approximately ten times more potent than the parent peptide”.
